Experimental findings from patent US11051515B2, “3-acyl-benzamides and their use as herbicides” (Bayer Aktiengesellschaft, priority 2017, dated 2021) are described below.

Assay [1] has as its system ECHCG. The experiment in a line: Post-emergence action against ECHCG. In kind it is in vivo, Echinochloa crus-galli. Particulars: post-emergence, dosage 80 g/ha, visual assessment about 3 weeks after treatment vs untreated controls. The method, boiled down: (§1)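 Post-emergence foliar spray on greenhouse plants at the one-leaf stage, using wettable-powder or emulsion-concentrate formulations in water (600 to […], plus 0.2% wetting agent). Damage scored by eye roughly 3 weeks later against untreated plants: 0% = like control, 100% = dead.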

Assay [2] concerns VIOTR. The experiment in a line: Pre-emergence action against VIOTR. The assay is classed as in vivo, Viola tricolor. Conditions: Dosage 320 g/ha, pre-emergence. The method, boiled down:
(§2)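 Seeds sown in sandy loam in wood-fiber pots and covered with soil. Greenhouse growth; visual damage scored after 3 weeks versus untreated controls (100% = dead, 0% = like control).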

Assay [3] relates to ECHCG. Put plainly: Pre-emergence action against ECHCG. Particulars: pre-emergence, dosage 320 g/ha, scored visually after 3 weeks vs untreated controls. The assay is classed as in vivo, Echinochloa crus-galli. The method, boiled down:
as §2

Assay [4] relates to STEME. The experiment in a line: Pre-emergence action against STEME. In kind it is in vivo, Stellaria media. Conditions: Dosage 320 g/ha, pre-emergence. The essentials:
as §2

The test system of assay [5] is ABUTH. The experiment in a line: Post-emergence action against ABUTH. The assay is classed as in vivo, Abutilon theophrasti. Conditions: post-emergence, dosage 80 g/ha, visual assessment about 3 weeks after treatment vs untreated controls. The method, boiled down: as §1
Assay [6] relates to PHBPU. The experiment in a line: Post-emergence action against PHBPU. Particulars: post-emergence, dosage 80 g/ha. In kind it is in vivo, Pharbitis purpurea. The method, boiled down:
as §1

Assay [7] deals with VIOTR. Put plainly: Post-emergence action against VIOTR. In kind it is in vivo, Viola tricolor. Particulars: post-emergence, dosage 80 g/ha. The method, boiled down: as §1
In assay [8] the test system is AMARE. The experiment in a line: Pre-emergence action against AMARE. In kind it is in vivo, Amaranthus retroflexus. Particulars: pre-emergence, dosage 320 g/ha, scored visually after 3 weeks vs untreated controls. The essentials:
as §2

Assay [9] deals with VERPE. The experiment in a line: Post-emergence action against VERPE. The assay is classed as in vivo, Veronica persica. Particulars: dosage 80 g/ha. The essentials: as §1
Assay [10] has as its system ABUTH. The experiment in a line: Pre-emergence action against ABUTH. In kind it is in vivo, Abutilon theophrasti. Conditions: pre-emergence, dosage 320 g/ha, scored visually after 3 weeks vs untreated controls. The essentials: as §2
Assay [11] relates to SETVI. The experiment in a line: Post-emergence action against SETVI. Conditions: post-emergence, dosage 80 g/ha, visual assessment about 3 weeks after treatment vs untreated controls. The assay is classed as in vivo, Setaria viridis. The essentials:
as §1

Assay [12] has as its system AMARE. The experiment in a line: Post-emergence action against AMARE. In kind it is in vivo, Amaranthus retroflexus. Conditions: post-emergence, dosage 80 g/ha, visual assessment about 3 weeks after treatment vs untreated controls. The method, boiled down:
as §1

The test system of assay [13] is STEME. The experiment in a line: Post-emergence action against STEME. The assay is classed as in vivo, Stellaria media. Particulars: post-emergence, dosage 80 g/ha. The method, boiled down:
as §1

For assay [14], the system named is ALOMY. Put plainly: Pre-emergence action against ALOMY. The assay is classed as in vivo, Alopecurus myosuroides. Particulars: dosage 320 g/ha; pre-emergence; scored visually after 3 weeks vs untreated controls; 100% = plants have died, 0% = like control plants. The method, boiled down: as §2
The test system of assay [15] is CYPES. The experiment in a line: Pre-emergence action against CYPES. In kind it is in vivo, Cyperus esculentus. Conditions: pre-emergence, dosage 320 g/ha, scored visually after 3 weeks vs untreated controls. The method, boiled down: as §2
The subject of assay [16] is VERPE. The experiment in a line: Pre-emergence action against VERPE. Conditions: Dosage 320 g/ha, pre-emergence. The assay is classed as in vivo, Veronica persica. The method, boiled down:
as §2

The subject of assay [17] is PHBPU. The experiment in a line: Pre-emergence action against PHBPU. In kind it is in vivo, Pharbitis purpurea. Particulars: Dosage 320 g/ha, pre-emergence. The method, boiled down:
as §2

Assay [18] relates to AVEFA. The experiment in a line: Pre-emergence action against AVEFA. In kind it is in vivo, Avena fatua. Conditions: dosage 320 g/ha, scored visually after 3 weeks vs untreated controls. The essentials:
as §2

Assay [19] deals with SETVI. The experiment in a line: Pre-emergence action against SETVI. The assay is classed as in vivo, Setaria viridis. Particulars: pre-emergence, dosage 320 g/ha, scored visually after 3 weeks vs untreated controls. The method, boiled down: as §2
Assay [20] deals with LOLRI. The experiment in a line: Pre-emergence action against LOLRI. In kind it is in vivo, Lolium rigidum. Particulars: dosage 320 g/ha, scored visually after 3 weeks vs untreated controls. The text has this:
Seeds of monocotyledonous and dicotyledonous weed plants and crop plants are laid out in sandy loam soil in wood-fiber pots and covered with soil. The compounds of the invention, formulated in the form of wettable powders (WP) or as emulsion concentrates (EC), are then applied to the surface of the covering soil in the form of an aqueous suspension or emulsion at a water application rate equating to […], with addition of 0.2% wetting agent. After the treatment, the pots are placed in a greenhouse and kept under good growth conditions for the trial plants. The damage to the test plants is scored visually after a test period of 3 weeks by comparison with untreated controls (herbicidal activity in percent (%): 100% activity=the plants have died, 0% activity=like control plants).

The test system of assay [21] is MATIN. Put plainly: Pre-emergence action against MATIN. In kind it is in vivo, Matricaria inodora. Conditions: Dosage 320 g/ha, pre-emergence. The method, boiled down: as §2
For assay [22], the system named is MATIN. The experiment in a line: Post-emergence action against MATIN. The assay is classed as in vivo, Matricaria inodora. Particulars: post-emergence, dosage 80 g/ha, visual assessment about 3 weeks after treatment vs untreated controls. The essentials:
as §1

The subject of assay [23] is AVEFA. The experiment in a line: Post-emergence action against AVEFA. The assay is classed as in vivo, Avena fatua. Conditions: post-emergence, dosage 80 g/ha, visual assessment about 3 weeks after treatment vs untreated controls. The essentials:
as §1

The test system of assay [24] is CYPES. The experiment in a line: Post-emergence action against CYPES. Conditions: post-emergence, dosage 80 g/ha, visual assessment about 3 weeks after treatment vs untreated controls. The assay is classed as in vivo, Cyperus esculentus. The method, boiled down: as §1
In assay [25] the test system is POLCO. Put plainly: Post-emergence action against POLCO. The assay is classed as in vivo, Polygonum convolvulus. Particulars: post-emergence, dosage 80 g/ha. The method, boiled down: as §1
Assay [26] deals with POLCO. The experiment in a line: Pre-emergence action against POLCO. The assay is classed as in vivo, Polygonum convolvulus. Conditions: Dosage 320 g/ha, pre-emergence. The method, boiled down:
as §2

With `CCn1nnnc1NC(=O)c1ccc(C(F)(F)F)c(C(=O)COC)c1Cl` [2-144], in [1], the “Post-emergence action against ECHCG (herbicidal action in percent)” value is 100%. For the same compound, the “Pre-emergence action against VIOTR” value in assay [2] stood at 100%. In addition, the “Pre-emergence action against ECHCG (herbicidal activity)” value in [3] amounted to 100%. Also, the “Pre-emergence action against STEME” value in assay [4] worked out at 100%. In addition, in assay [5], the “Post-emergence action against ABUTH (herbicidal action in percent)” value turned out to be 90%. For the same compound, the “Post-emergence action against PHBPU” value in assay [6] was determined as 100. The “Post-emergence action against VIOTR” value in [7] is reported as 100. In addition, the “Pre-emergence action against AMARE (herbicidal activity)” value in assay [8] worked out at 100%. Besides, the “Post-emergence action against VERPE” value in [9] came out at 90. In assay [10], the “Pre-emergence action against ABUTH (herbicidal activity)” value is given as 100%. Moreover, the “Post-emergence action against SETVI (herbicidal action in percent)” value in [11] is 100%. Also, in assay [12], the “Post-emergence action against AMARE (herbicidal action in percent)” value was found to be 100%. Also, the “Post-emergence action against STEME” value in [13] is given as 100. Besides, the “Pre-emergence action against ALOMY (herbicidal activity in percent)” value in assay [14] was found to be 100%. The “Pre-emergence action against CYPES (herbicidal activity)” value in [15] is 100%. For the same compound, in assay [16], the “Pre-emergence action against VERPE” value stood at 100%. Besides, the “Pre-emergence action against PHBPU” value in [17] worked out at 100%. In addition, the “Pre-emergence action against AVEFA (herbicidal activity)” value in assay [18] is 100%. The “SETVI (Table B8, pre-emergence herbicidal activity)” value in assay [19] was 100%. Further, the “Pre-emergence action against LOLRI (herbicidal activity)” value in assay [20] was found to be 100%. Further, the “Pre-emergence action against MATIN” value in assay [21] is recorded as 100%. Moreover, the “Post-emergence action against MATIN (herbicidal action in percent)” value in assay [22] is on record as 90%.
`CCCn1nnnc1NC(=O)c1ccc(C(F)F)c(C(C)=O)c1Cl` [3-164]: in [23], the “Post-emergence action against AVEFA (herbicidal action in percent)” value stood at 80%. Moreover, in [1], the “Post-emergence action against ECHCG (herbicidal action in percent)” value was found to be 100%. Besides, the “Pre-emergence action against VIOTR” value in assay [2] worked out at 100%. In addition, the “Pre-emergence action against ECHCG (herbicidal activity)” value in assay [3] is given as 100%. In [4], the “Pre-emergence action against STEME” value stood at 100%. Besides, the “Post-emergence action against ABUTH (herbicidal action in percent)” value in assay [5] is 90%. Further, in [6], the “Post-emergence action against PHBPU” value was determined as 100. Further, in assay [7], the “Post-emergence action against VIOTR” value amounted to 100. In assay [24], the “Post-emergence action against CYPES (herbicidal action in percent)” value is recorded as 90%. The “Pre-emergence action against AMARE (herbicidal activity)” value in [8] was 100%. The “Pre-emergence action against ABUTH (herbicidal activity)” value in assay [10] amounted to 100%. Further, the “Post-emergence action against SETVI (herbicidal action in percent)” value in [11] turned out to be 100%. For the same compound, the “Post-emergence action against AMARE (herbicidal action in percent)” value in assay [12] came to 100%. The “Post-emergence action against STEME” value in assay [13] came out at 100. In assay [14], the “Pre-emergence action against ALOMY (herbicidal activity in percent)” value is given as 90%. Moreover, the “Pre-emergence action against CYPES (herbicidal activity)” value in [15] is given as 100%. For the same compound, in [16], the “Pre-emergence action against VERPE” value is listed as 100%. Also, in assay [17], the “Pre-emergence action against PHBPU” value is 90%. For the same compound, the “Pre-emergence action against AVEFA (herbicidal activity)” value in [18] is recorded as 100%. Further, the “SETVI (Table B8, pre-emergence herbicidal activity)” value in [19] was 100%. In assay [25], the “Post-emergence action against POLCO” value is listed as 80. In [20], the “Pre-emergence action against LOLRI (herbicidal activity)” value amounted to 90%. Besides, in assay [26], the “Pre-emergence action against POLCO” value is 100%. Moreover, the “Pre-emergence action against MATIN” value in assay [21] came out at 100%. For the same compound, the “Post-emergence action against MATIN (herbicidal action in percent)” value in assay [22] is on record as 100%.
